In US9635853B2, “Insecticidal compounds” (Syngenta Participations AG, priority 2013, dated 2017):

Assays:
Format in all cases: in vivo
[1] = test system: Spodoptera littoralis; assay: Spodoptera littoralis (Egyptian cotton leafworm) leaf disc test; conditions: foliar, 72 h, 200 ppm sprayed on cotton leaf discs, L1 larvae, mortality, feeding behavior, growth regulation 3 DAT
Text: Spodoptera littoralis (Egyptian cotton leafworm): Cotton leaf discs were placed on agar in a 24-well microtiter plate and sprayed with test solutions at an application rate of 200 ppm. After drying, the leaf discs were infested with 5 L1 larvae. The samples were checked for mortality, feeding behavior, and growth regulation 3 days after treatment (DAT).

[2] = test system: Heliothis virescens; assay: Heliothis virescens (Tobacco budworm) egg/artificial diet test; conditions: 96 h, 200 ppm (concentration in well 18 ppm), eggs on artificial diet, 4 days, egg mortality, larval mortality, growth regulation
Method: Heliothis virescens (Tobacco budworm): Eggs (0-24 h old) were placed in 24-well microtiter plate on artificial diet and treated with test solutions at an application rate of 200 ppm (concentration in well 18 ppm) by pipetting. After an incubation period of 4 days, samples were checked for egg mortality, larval mortality, and growth regulation.

[3] = test system: Plutella xylostella; assay: Plutella xylostella (Diamond back moth) artificial diet test; conditions: 144 h, 200 ppm (concentration in well 18 ppm), L2 larvae, 6 days, larval mortality and growth regulation
Method: (§1) Plutella xylostella (Diamond back moth): 24-well microtiter plate (MTP) with artificial diet was treated with test solutions at an application rate of 200 ppm (concentration in well 18 ppm) by pipetting. After drying, the MTP's were infested with L2 larvae (7-12 per well). After an incubation period of 6 days, samples were checked for larval mortality and growth regulation.

[4] = test system: Diabrotica balteata; assay: Diabrotica balteata (Corn root worm) artificial diet test; conditions: 120 h, 200 ppm (concentration in well 18 ppm), L2 larvae, 5 days, larval mortality and growth regulation
Method: as §1, with “Diabrotica balteata (Corn root worm): A” for “Plutella xylostella (Diamond back moth):”, “(6-10” for “(7-12”, “5” for “6”

[5] = test system: Thrips tabaci; assay: Thrips tabaci (Onion thrips) leaf disc test; conditions: foliar, 168 h, 200 ppm sprayed on sunflower leaf discs, population of mixed ages, 7 days, mortality
Method: Thrips tabaci (Onion thrips): Sunflower leaf discs were placed on agar in a 24-well microtiter plate and sprayed with test solutions at an application rate of 200 ppm. […] After an incubation period of 7 days, samples were checked for mortality.

[6] = test system: Tetranychus urticae; assay: Tetranychus urticae (Two-spotted spider mite) leaf disc test; conditions: foliar, 192 h, 200 ppm sprayed on bean leaf discs, mite populations of mixed ages, 8 days, egg, larval and adult mortality
Text: Tetranychus urticae (Two-spotted spider mite): Bean leaf discs on agar in 24-well microtiter plates were sprayed with test solutions at an application rate of 200 ppm. After drying, the leaf discs are infested with mite populations of mixed ages. 8 days later, discs are checked for egg mortality, larval mortality, and adult mortality.

[7] = test system: Myzus persicae; assay: Myzus persicae (Green peach aphid) leaf disc test; conditions: foliar, 144 h, 200 ppm sprayed on sunflower leaf discs, aphid population of mixed ages, 6 DAT, mortality
Method: Myzus persicae (Green peach aphid): Sunflower leaf discs were placed on agar in a 24-well microtiter plate and sprayed with test solutions at an application rate of 200 ppm. After drying, the leaf discs were infested with an aphid population of mixed ages. After an incubation period of 6 DAT, samples were checked for mortality.

Measured: pest or weed control at 200 ppm

CCN(C(=O)c1ccncc1)c1cccc(C(=O)Nc2c(Cl)cc(C(F)(C(F)(F)F)C(F)(F)F)cc2Br)c1F [Compound 1, N′-[3-[[2-bromo-6-chloro-4-[1,1,1,2,3,3,3-heptafluoro-prop-2-yl]phenyl]carbamoyl]-2-fluoro-phenyl]-N-ethyl-pyridine-4-carboxamide]
≥ 80%: all assays above

CCN(C(=O)c1ccncc1)c1cccc(C(=O)Nc2c(Cl)cc(C(F)(C(F)(F)F)C(F)(F)F)cc2Cl)c1F [Compound 11]
≥ 80%: all assays above

CN(C(=O)c1cc[n+]([O-])cc1)c1cccc(C(=O)Nc2c(Br)cc(C(F)(C(F)(F)F)C(F)(F)F)cc2Br)c1F [Compound 9]
≥ 80%: all assays above

CCN(C(=O)c1ccncc1)c1cccc(C(=O)Nc2c(C)cc(C(F)(C(F)(F)F)C(F)(F)F)cc2OC(F)F)c1F [Compound 19]
not listed: [2]
≥ 80%: all other assays above

CN(C(=O)c1ccncc1)c1cccc(C(=O)Nc2c(Cl)cc(C(F)(C(F)(F)F)C(F)(F)F)cc2Cl)c1F [Compound 10]
≥ 80%: all assays above

CCN(C(=O)c1ccncc1)c1cccc(C(=O)Nc2c(Br)cc(C(F)(C(F)(F)F)C(F)(F)F)cc2C2CC2)c1F [Compound 15]
≥ 80%: all assays above

CCc1cc(C(F)(C(F)(F)F)C(F)(F)F)cc(CC)c1NC(=O)c1cccc(N(CC)C(=O)c2ccncc2)c1F [Compound 4]
not listed: [2]
≥ 80%: all other assays above

CCN(C(=O)c1cc[n+]([O-])cc1)c1cccc(C(=O)Nc2c(Br)cc(C(F)(C(F)(F)F)C(F)(F)F)cc2OC(F)F)c1F [Compound 17]
≥ 80%: all assays above

CCN(C(=O)c1ccncc1)c1cccc(C(=O)Nc2c(C)cc(C(F)(C(F)(F)F)C(F)(F)F)cc2Cl)c1F [Compound 14]
≥ 80%: all assays above

CCN(C(=O)c1cc[n+]([O-])cc1)c1cccc(C(=O)Nc2c(Cl)cc(C(F)(C(F)(F)F)C(F)(F)F)cc2Br)c1F [Compound 2, N′-[3-[[2-bromo-6-chloro-4-[1,1,1,2,3,3,3-heptafluoro-prop-2-yl]phenyl]carbamoyl]-2-fluoro-phenyl]-N-ethyl-1-oxido-pyridin-1-ium-4-carboxamide]
≥ 80%: all assays above

Cc1cc(C(F)(C(F)(F)F)C(F)(F)F)cc(Cl)c1NC(=O)c1cccc(N(C)C(=O)c2ccncc2)c1F [Compound 12]
≥ 80%: all assays above

CCc1cc(C(F)(C(F)(F)F)C(F)(F)F)cc(CC)c1NC(=O)c1cccc(N(CC)C(=O)c2cc[n+]([O-])cc2)c1F [Compound 5]
not listed: [1] | [2]
≥ 80%: all other assays above

CCc1cc(C(F)(C(F)(F)F)C(F)(F)F)cc(Cl)c1NC(=O)c1cccc(N(CC)C(=O)c2ccncc2)c1F [Compound 13]
≥ 80%: all assays above

CCN(C(=O)c1ccncc1)c1cccc(C(=O)Nc2c(Cl)cc(C(F)(C(F)(F)F)C(F)(F)F)cc2OC(F)F)c1F [Compound 18]
not listed: [2]
≥ 80%: all other assays above

CCN(C(=O)c1ccncc1)c1cccc(C(=O)Nc2c(Br)cc(C(F)(C(F)(F)F)C(F)(F)F)cc2Br)c1F [Compound 6]
≥ 80%: all assays above

CN(C(=O)c1ccncc1)c1cccc(C(=O)Nc2c(Br)cc(C(F)(C(F)(F)F)C(F)(F)F)cc2Br)c1F [Compound 8]
≥ 80%: all assays above

CN(C(=O)c1ccncc1)c1cccc(C(=O)Nc2c(Cl)cc(C(F)(C(F)(F)F)C(F)(F)F)cc2Br)c1F [Compound 3]
not listed: [2]
≥ 80%: all other assays above

CCN(C(=O)c1ccncc1)c1cccc(C(=O)Nc2c(Br)cc(C(F)(C(F)(F)F)C(F)(F)F)cc2OC(F)F)c1F [Compound 7]
≥ 80%: all assays above

CCN(C(=O)c1cc[n+]([O-])cc1)c1cccc(C(=O)Nc2c(Br)cc(C(F)(C(F)(F)F)C(F)(F)F)cc2C2CC2)c1F [Compound 16]
≥ 80%: all assays above
